# Test results published in ChEMBL document CHEMBL5543088, “Targeting G-rich sequence to regulate the transcription of murine double minute (MDM) genes in triple-negative breast cancers” (Eur J Med Chem, 2024).
# pIC50, pKd: −log10 of the molar value. Activity calls are given as the source filed them. The calls are words filed in the database; no cut-off is given here.
# Experiments:
# [1] = test system: HCC1806; test: Inhibition of cell proliferation in human HCC1806 cells by MTT assay; format: functional, cell-based
# [2] = test system: MDA-MB-231; test: Inhibition of cell proliferation in human MDA-MB-231 cells by MTT assay; format: functional, cell-based
# [3] = Inhibition of cell proliferation in HUVEC cells by MTT assay; format: toxicity, cell-based; conditions: human
# [4] = Inhibition of cell proliferation in human HL7702 cells by MTT assay; format: toxicity, cell-based; conditions: HL7702 (L02) cells
# [5] = test system: HCC1937; test: Inhibition of cell proliferation in human HCC1937 cells by MTT assay; format: functional, cell-based
# [6] = test system: RNA; test: Inhibition of wild-type G1 of MDM2 expressed in human HCC1937 cells upto 3 uM incubated for 24 hrs by luciferase reporter assay; format: cell-based
# [7] = test system: RNA; test: Induction of wild-type G5 of MDMX expressed in human HCC1937 cells upto 3 uM incubated for 24 hrs by luciferase reporter assay; format: cell-based; conditions: filed as activator
# [8] = test system: Quadruplex DNA; test: Binding affinity to c-myc DNA G-quadruplex (unknown origin) assessed as thermal stability by measuring increase in melting temperature by FRET assay; format: nucleic-acid assay
# [9] = test system: HCC1937; test: Upregulation of MDMX mRNA level in human HCC1937 cells upto 3 uM by qPCR analysis; format: functional, cell-based
# [10] = test system: HCC1937; test: Effect on cell proliferation in human HCC1937 cells overexpressing BLM assessed as cell survival at 6 uM relative to control; format: functional; conditions: read-out: Activity
# [11] = test system: HCC1937; test: Effect on DNAPKcs phosphorylation at Ser2056 in human HCC1937 cells upto 6 uM incubated for 24 hrs by Western blot analysis; format: functional, cell-based
# [12] = test system: HCC1937; test: Downregulation of MDM2 level in siMDMX-treated human HCC1937 cells upto 6 uM by Western blot analysis; format: functional, cell-based
# [13] = test system: HCC1937; test: Inhibition of apoptosis in siMDM2-treated human HCC1937 cells at 6 uM (reference value: 55.8 %); format: functional
# [14] = test system: RNA; test: Binding affinity to FAM/TAMRA-labeled G1 of MDM2 (unknown origin) assessed as thermal stability by measuring increase in melting temperature by FRET assay; format: nucleic-acid assay; conditions: Homo sapiens
# [15] = test system: HCC1937; test: Induction of apoptosis in siMDMX-treated human HCC1937 cells assessed as increase in cleaved caspase-3 level upto 6 uM by Western blot analysis; format: functional, cell-based
# [16] = test system: RNA; test: Binding affinity to TAMRA-labeled G1 mutant of MDM2 transfected in human HCC1937 cells at 3 uM incubated for 6 hrs by BG4 antibody based analysis; format: cell-based
# [17] = test system: HCC1937; test: Downregulation of MDM2 level in human HCC1937 cells upto 6 uM incubated for 24 hrs by Western blot analysis; format: functional, cell-based
# [18] = test system: HCC1937; test: Upregulation of MDMX level in siMDM2-treated human HCC1937 cells upto 6 uM by Western blot analysis; format: functional, cell-based
# [19] = biological target: DNA; test: Binding affinity to biotin-labeled ss26 DNA (unknown origin) immobilized on SA biosensor assessed as dissociation constant by BLI assay; format: nucleic-acid assay
# [20] = test system: HCC1937; test: Inhibition of cell proliferation in Nutlin3a-treated human HCC1937 cells by MTT assay; format: functional, cell-based
# [21] = test system: HCC1937; test: Upregulation of MDMX level in human HCC1937 cells upto 6 uM incubated for 24 hrs by Western blot analysis; format: functional, cell-based
# [22] = test system: HCC1937; test: Inhibition of cell proliferation in human HCC1937 cells assessed as decrease in cell survival at 6 uM relative to control; format: functional
# [23] = test system: RNA; test: Binding affinity to FAM/TAMRA-labeled G5 of MDMX (unknown origin) assessed as thermal stability by measuring increase in melting temperature by FRET assay; format: nucleic-acid assay; conditions: Homo sapiens
# [24] = test system: HCC1937; test: Upregulation of MDMX level in siMDMX-treated human HCC1937 cells upto 6 uM by Western blot analysis; format: functional, cell-based
# [25] = test system: HCC1937; test: Inhibition of cell proliferation in siMDM2-treated human HCC1937 cells by MTT assay; format: functional, cell-based; conditions: dose <= 6.0 µM
# [26] = test system: RNA; test: Binding affinity to G1 of MDM2 (unknown origin) at 10 uM by CD spectrum assay; format: nucleic-acid assay; conditions: Homo sapiens
# [27] = test system: RNA; test: Binding affinity to TAMRA-labeled wild-type G1 of MDM2 transfected in human HCC1937 cells at 3 uM incubated for 6 hrs by BG4 antibody based analysis; format: cell-based
# [28] = test system: HCC1937; test: Induction of apoptosis in siMDMX-treated human HCC1937 cells at 6 uM (reference value: 55.8 %); format: functional
# [29] = test system: HCC1937; test: Effect on H2AX phosphorylation at Ser139 in human HCC1937 cells upto 6 uM incubated for 24 hrs by Western blot analysis; format: functional, cell-based
# [30] = test system: Quadruplex RNA; test: Binding affinity to NRAS RNA G-quadruplex (unknown origin) assessed as thermal stability by measuring increase in melting temperature by FRET assay; format: nucleic-acid assay
# [31] = biological target: Quadruplex DNA; test: Binding affinity to biotin-labeled c-myc DNA G-quadruplex (unknown origin) immobilized on SA biosensor assessed as dissociation constant by BLI assay; format: nucleic-acid assay
# [32] = biological target: Quadruplex RNA; test: Binding affinity to biotin-labeled NRAS RNA G-quadruplex (unknown origin) immobilized on SA biosensor assessed as dissociation constant by BLI assay; format: nucleic-acid assay
# [33] = biological target: dsDNA; test: Binding affinity to biotin-labeled ds26 DNA (unknown origin) immobilized on SA biosensor assessed as dissociation constant by BLI assay; format: nucleic-acid assay
# [34] = test system: RNA; test: Binding affinity to TAMRA-labeled G5 mutant of MDMX transfected in human HCC1937 cells at 3 uM incubated for 6 hrs by BG4 antibody based analysis; format: cell-based
# [35] = test system: RNA; test: Induction of G5 mutant of MDMX expressed in human HCC1937 cells upto 3 uM incubated for 24 hrs by luciferase reporter assay; format: cell-based
# [36] = test system: HCC1937; test: Inhibition of cell proliferation in siMDMX-treated human HCC1937 cells by MTT assay; format: functional, cell-based
# [37] = test system: RNA; test: Inhibition of G1 mutant of MDM2 expressed in human HCC1937 cells upto 3 uM incubated for 24 hrs by luciferase reporter assay; format: cell-based
# [38] = test system: HCC1937; test: Induction of apoptosis in human HCC1937 cells assessed as increase in cleaved caspase-3 level upto 6 uM incubated for 24 hrs by Western blot analysis; format: functional, cell-based
# [39] = test system: HCC1937; test: Downregulation of MDM2 mRNA level in human HCC1937 cells upto 3 uM by qPCR analysis; format: functional, cell-based
# [40] = test system: HCC1937; test: Induction of apoptosis in siMDM2-treated human HCC1937 cells assessed as increase in cleaved caspase-3 level upto 6 uM by Western blot analysis; format: functional, cell-based
# [41] = test system: RNA; test: Binding affinity to TAMRA-labeled wild-type G5 of MDMX transfected in human HCC1937 cells at 3 uM incubated for 6 hrs by BG4 antibody based analysis; format: cell-based; conditions: filed as activator
# [42] = test system: RNA; test: Binding affinity to G5 of MDMX (unknown origin) at 10 uM by CD spectrum assay; format: nucleic-acid assay; conditions: Homo sapiens, filed as activator
# [43] = test system: HCC1937; test: Downregulation of MDMX level in human HCC1937 cells upto 3 uM incubated for 24 hrs by Western blot analysis; format: functional, cell-based
# [44] = test system: HCC1937; test: Effect on cell proliferation in human HCC1937 cells overexpressing BLM assessed as cell survival at 6 uM; format: functional, cell-based
# [45] = test system: HCC1937; test: Downregulation of MDM2 level in human HCC1937 cells upto 3 uM incubated for 24 hrs by Western blot analysis; format: functional, cell-based
# [46] = biological target: RNA; test: Binding affinity to biotin-labeled G1 of MDM2 (unknown origin) immobilized on SA biosensor assessed as dissociation constant by BLI assay; format: nucleic-acid assay, Homo sapiens
# [47] = biological target: RNA; test: Binding affinity to biotin-labeled G5 of MDMX (unknown origin) immobilized on SA biosensor assessed as dissociation constant by BLI assay; format: nucleic-acid assay, Homo sapiens
# [48] = test system: RNA; test: Induction of wild-type G5 of MDMX expressed in human HCC1937 cells upto 1 uM incubated for 24 hrs by luciferase reporter assay; format: cell-based; conditions: filed as activator
# [49] = test system: RNA; test: Inhibition of wild-type G1 of MDM2 expressed in human HCC1937 cells upto 1 uM incubated for 24 hrs by luciferase reporter assay; format: cell-based
smiles,measurement,setting,value
N=C(N)SCc1c2ccccc2cc2ccccc12,pIC50,[1],4.90
same,pIC50,[2],5.22
same,pIC50,[3],5.02
same,pIC50,[4],4.68
same,pIC50,[5],4.77
N=C(N)SCc1ccc2ccccc2c1,pIC50,[1],< 4.30
same,pIC50,[2],< 4.30
same,pIC50,[3],< 4.30
same,pIC50,[4],< 4.30
same,pIC50,[5],< 4.30
Brc1c2ccccc2c(C[P+](c2ccccc2)(c2ccccc2)c2ccccc2)c2ccccc12.[Br-],inhibition,[6],Active
same,Activity,[7],Active
same,ΔTm,[8],18 °C
same,Activity,[9],Active
same,viability at 6 µM,[10],85.3%
same,Activity,[11],inactive
same,Activity,[12],Active
same,inhibition at 6 µM,[13],30.6%
same,ΔTm,[14],33 °C
same,Activity,[15],Active
same,Activity,[16],inactive
same,Activity,[17],Active
same,Activity,[18],Active
same,pKd,[19],4.97
same,inhibition,[20],inactive
same,Activity,[21],Active
same,inhibition at 6 µM,[22],27.7%
same,ΔTm,[23],30 °C
same,Activity,[24],Active
same,inhibition,[25],inactive
same,Activity,[26],Active
same,Activity,[27],Active
same,Activity,[28],~70.4%
same,Activity,[29],inactive
same,ΔTm,[30],0.1 °C
same,pKd,[31],4.81
same,pKd,[32],4.62
same,pKd,[33],4.63
same,Activity,[34],inactive
same,inhibition,[5]; dose <= 6.0 µM,Dose-Dependent Effect
same,Activity,[35],inactive
same,inhibition,[36],Active
same,inhibition,[37],inactive
same,Activity,[38],Active
same,Activity,[39],Active
same,Activity,[40],inactive
same,Activity,[41],Active
same,Activity,[42],Active
Cc1c2ccccc2c(CSC(=N)N)c2ccccc12,pIC50,[1],5.16
same,pIC50,[2],5.68
same,ΔTm,[30],-0.2 °C
same,Activity,[43],Active
same,pIC50,[3],5.46
same,Activity,[44],inactive
same,Activity,[45],Active
same,pIC50,[4],5.30
same,pIC50,[5],5.19
Cc1c2ccccc2c(C[P+](c2ccccc2)(c2ccccc2)c2ccccc2)c2ccccc12,ΔTm,[8],17 °C
same,ΔTm,[14],25 °C
same,pKd,[46],5.01
same,ΔTm,[23],22 °C
same,ΔTm,[30],-0.4 °C
same,pKd,[31],< 4.60
same,pKd,[47],5.14
N=C(N)SCc1ccc([N+](=O)[O-])cc1,pIC50,[1],< 4.30
same,pIC50,[2],< 4.30
same,pIC50,[3],< 4.30
same,pIC50,[4],< 4.30
same,pIC50,[5],< 4.30
N=C(N)SCc1c2ccccc2c(Br)c2ccccc12,pIC50,[1],5.46
same,pIC50,[2],5.09
same,pIC50,[3],4.69
same,pIC50,[4],4.61
same,pIC50,[5],5.19
Cc1ccc(CSC(=N)N)cc1,pIC50,[1],< 4.30
same,pIC50,[2],< 4.30
same,pIC50,[3],< 4.30
same,pIC50,[4],< 4.30
same,pIC50,[5],< 4.30
C[n+]1ccc(-c2c3nc(c(-c4cc[n+](C)cc4)c4ccc([nH]4)c(-c4cc[n+](C)cc4)c4ccc([nH]4)c(-c4cc[n+](C)cc4)c4nc2C=C4)C=C3)cc1,Activity,[48],Active
same,inhibition,[49],Active
c1ccc([P+](Cc2c3ccccc3cc3ccccc23)(c2ccccc2)c2ccccc2)cc1,ΔTm,[8],16.5 °C
same,ΔTm,[14],24 °C
same,pKd,[46],4.97
same,ΔTm,[23],22 °C
same,ΔTm,[30],0.2 °C
same,pKd,[31],< 4.60
same,pKd,[47],5.06
N=C(N)SCc1c2ccccc2nc2ccccc12,pIC50,[1],< 4.30
same,pIC50,[2],< 4.30
same,pIC50,[3],< 4.30
same,pIC50,[4],< 4.30
same,pIC50,[5],< 4.30
N=C(N)SCc1cccc2ccccc12,pIC50,[1],< 4.30
same,pIC50,[2],< 4.30
same,pIC50,[3],< 4.30
same,pIC50,[4],< 4.30
same,pIC50,[5],< 4.30
N=C(N)SCC1c2ccccc2CCc2ccccc21,pIC50,[1],< 4.30
same,pIC50,[2],4.32
same,pIC50,[3],< 4.30
same,pIC50,[4],< 4.30
same,pIC50,[5],< 4.30
